Measured values as given in patent US7825094B2, “Method of treatment for cancers associated with elevated HER 2 levels” (Sloan-Kettering Institute for Cancer Research, priority 2001, dated 2010).

Key:
[1] = tested on: cyclin D1, cyclin D3, cdk4, AKT, Raf-1 in BT-474 cells; assay: Immunoblot of protein expression in BT-474 (HER-2+++) cells; format: cell-based, human; conditions: 50 nM or 500 nM
Protocol: (§1) Levels of mitotic cyclin expression, HER-2 expression, AKT expression and Raf1 expression in MCF-7 (HER-2 negative) or BT-474 (HER-2+++) cell lines treated with CNF-101 (17-AAG) were assessed using immunoblot analysis. Immunoblot analysis of lysates from cells treated with either 50 nM or 500 nM CNF-101 (17-AAG) were analyzed by Western blot using anti-cyclin D1, anti-cyclin D3, anti-cyclin cdk4, anti-AKT or anti-Raf1 antibodies. All antibodies were obtained from Santa Cruz Biotechnology (Santa Cruz, Calif., USA). Treated cells were harvested, washed with PBS and lysed in NP40 lysis buffer (50 mM Tris pH7.4, 1% NP40,150 mM NaCl, 40 mM NaF. 1 mM Na3VO4, 1 mM phenylmethylsulfonylfluoride, and 10 μg/ml each of leupeptin, aprotinin and soybean trypsin inhibitor) for 30 min on ice. Lysates were centrifuged at 15,000×g for 10 min and protein concentration determined by bicinchoninic acid protein assay (Pierce). Equal amounts of total protein were resolved by SDS-PAGE and transferred onto Immobilon PVDF membranes (Millipore) by electroblotting. Blots were blocked overnight in 5% nonfat milk in TBS-T (0.1% Tween-20 TBS, 10 mM Tris pH 7.4, 150 mM NaCl) at 4° C. and subsequently probed with either anti-HER-2, anti-cylin D1, anti-cyclin D3, anti cdk4, anti-AKT or anti-Raf1 antibodies. Following incubation with HRP-conjugated secondary antibodies, proteins were detected by chemiluminescence (Amersham).

[2] = tested on: HER-2, AKT and phospho-AKT in BT-474 xenografts; assay: Western blot of HER-2, AKT and phospho-AKT in BT-474 breast carcinoma xenografts; format: in vivo, Swiss nu/nu mice; conditions: 50 mg/kg, intraperitoneally
Protocol: BT-474 breast tumor cells were implanted subcutaneously on the flank of Swiss nu/nu mice and allowed to become established to a diameter of 5 mm. Animals were treated intraperitoneally with optimal doses of CNF-101 (17-AAG) and tumors removed at the indicated times thereafter. Tumor tissue was snap-frozen at the time of removal. For analysis, tissues were rapidly thawed, lysed and assaysed for HER-2, AKT and phospho-AKT by Western blotting.

[3] = tested on: AKT kinase activity in HER-2-low MCF-7 line; assay: AKT kinase activity after immunoprecipitation (GSK-1 substrate, 32-P ATP) in MCF-7 cells; format: cell-based, human; conditions: ten times 100 nM
Protocol: (§2) Cells were treated with 1 uM CNF-101 (17-AAG) for 24 hrs, washed, harvested and lysed in NP-40. Lysates were resolved by SDS-PAGE, transferred onto Immobilon PVDF membranes, blocked in 5% nonfat milk and probed with antibodies to AKT or […] phosphorylated AKT (phospho-AKT) from Upstate. Following incubation with HRP-conjugated secondary antibodies, proteins were detected using chemiluminescnce (Amersham). AKT kinase activity was assessed following immunopreciptation by a standard kinase assay with the recombinant AKT substrate protein glycogen synthase kinase-1 (GSK-1) and 32-P labelled ATP. AKT is a key kinase in tumor cells.

[4] = tested on: human cancer cell lines BT-474, SKBR-3, SKOV-3, MCF-Her2, MCF-7, MDA-468, MDA-231, T47-D, MDA435; assay: Antiproliferative effect on cancer cell lines expressing different amounts of HER-2 (ethidium bromide nuclei staining, flow cytometry); format: cell-based
Protocol: Human cancer cell lines BT-474, SKBR-3, SKOV-3, MCF-Her2, MCF-7, MDA-468, MDA-231, T47-D, and MDA435 were obtained from the American Type Culture Collection (“ATCC;” Manassas, Va., USA). Cell lines were maintained in […] medium, supplemented with 5% fetal calf serum (BRL), 2 mM glutamine, and 50 U/ml each of penicillin and streptomycin, at 37° C. in 5% CO2.
Cells were treated for 24 hours with CNF-101 (17-AAG) at concentrations of 1 to 1000 nM. Following treatment, the nuclei were stained with ethidium bromide and analyzed by flow cytometry. Nuclei were isolated for flow cytometry assays, stained with ethidium bromide and analyzed using a Becton Dickinson fluorescence-activated cell sorter. Statistical data was obtained using Multicycle program software.
Those cell lines expressing the highest levels of HER-2 were the most sensitive to CNF-101 (17-AAG) (FIG. 1).

[5] = tested on: AKT kinase activity in high HER-2 (SKBr3) cells; assay: AKT kinase activity after immunoprecipitation (GSK-1 substrate, 32-P ATP) in SKBr3 cells; format: cell-based, human; conditions: 100 nM
Protocol: as §2, with “Lysates” for “Cells were treated with 1 uM CNF-101 (17-AAG) for 24 hrs, washed, harvested and lysed in NP-40. Lysates”

[6] = tested on: AKT and phospho-AKT in BT-474, SKBR-3, U87, MCF-7, MDA-468 cells; assay: Western blot of AKT and phospho-AKT in a panel of cell lines; format: cell-based, human
Protocol: as §2, with “AKT” for “AKT kinase activity was assessed following immunopreciptation by a standard kinase assay with the recombinant AKT substrate protein glycogen synthase kinase-1 (GSK-1) and 32-P labelled ATP. AKT”

[7] = tested on: AKT and phospho-AKT in HER-2+++ and HER-2- cells; assay: Western blot of AKT and phospho-AKT in HER-2+++ and HER-2- cells; format: cell-based, human; conditions: 1 uM, 24 hrs
Protocol: as §2

[8] = tested on: cyclin D1, cyclin D3, cdk4, AKT, Raf-1 in MCF-7 cells; assay: Immunoblot of protein expression in MCF-7 (HER-2 negative) cells; format: cell-based, human; conditions: 50 nM or 500 nM
Protocol: as §1

[9] = HER-2 overexpressing cells (BT-474)
[10] = 1 uM, 24 hrs, panel of cell lines
[11] = HER low expressing cells (MCF-7)

C=CCNC1=C2C[C@@H](C)C[C@H](OC)[C@H](O)[C@@H](C)/C=C(\C)[C@H](OC(N)=O)[C@@H](OC)/C=C\C=C(/C)C(=O)NC(=CC1=O)C2=O [CNF-101 (17-AAG), 17-allylamino-17-demethoxygeldanamycin]
cyclin D1 protein level ([1]; BT-474): rapid decrease | cyclin D3 protein level ([1]; BT-474): rapid decrease | Raf-1 (HSP90 client protein) level ([1]; BT-474, 0, 4, 12, 24 hours): degradation | AKT protein level [1, 9]: not affected | cdk4 protein level [1, 9]: not affected | AKT protein levels in xenograft [2]: remained constant | HER-2 protein levels in xenograft [2]: declined | phosphorylated ("active") AKT protein in xenograft [2]: declined rapidly | time to cause even partial loss of AKT kinase activity [3]: 12 h | growth arrest ([4]; 24 hours, 1 to 1000 nM, all cell lines tested (FIG. 1)): caused growth arrest in all the cell lines tested | difference in sensitivity between congenic pair ([4]; MCF-7 vs. MCF-7/HER-2): 10 fold | sensitivity of high HER-2 lines versus low HER-2 lines ([4]; high HER-2: BT-474, SKBR-3, SKOV-3, MDA435, low HER-2: MDA-468, MDA-231, T47D): markedly more sensitive | time to complete loss of AKT activity [5]: ≤ 3 h | AKT protein level [6, 10]: does not cause significant loss of the protein | phospho-AKT level [6, 10]: disappears from the treated cells | AKT activity ([6]; 1 uM, multiple cell lines): causes loss of AKT activity in multiple cell lines | loss of AKT activity in high HER-2 lines versus low HER-2 lines ([6]; high HER-2: BT-474, SKBR-3, low HER-2: U87, MCF-7, MDA-468): much more rapid and complete loss of AKT activity | AKT protein level [7]: does not cause significant loss of the protein | phospho-AKT level [7]: disappears from the treated cells | AKT protein level [8, 11]: not affected | cdk4 protein level [8, 11]: not affected | decrease in cyclin D1 protein level ([8]; MCF-7 (low HER-2)): not seen | decrease in cyclin D3 protein level ([8]; MCF-7 (low HER-2)): not seen | Raf-1 (HSP90 client protein) level ([8]; MCF-7, 0, 4, 12, 24 hours): degradation
